{"source": "patent US20180228801A1", "about": "“Method for Enhancing Learning Ability and Memory of Patients with Alzheimer's Disease using Mocetinostat” (National Taiwan Normal University, priority 2017, published 2018)", "key": {"[1]": {"test_system": "primary hippocampus neurons", "test": "Primary hippocampus neurons damaged by oligomeric Aβ25-35, immune-fluorescent staining (NeuN, MAP2)", "assay_type": "cell-based, mouse (C57BL/6J)", "conditions": "48 hours after 50 μM oligomeric Aβ25-35, vs group treated with Aβ25-35", "procedure": "The method of culturing mouse primary hippocampus neurons follow from a modified method from the prior art (Seibenhener and Wooten, 2012), including: obtaining a 16-18 day old embryo from a C57BL/6J strain pregnant female mouse after euthanasia, obtaining hippocampus tissue of the embryo and digesting the tissue with 0.05% trypsin at 37° C. for 15 minutes, and seeding 3×10^4 cells per well in a 48-well plate coated with Poly-L-lysine (100 μg/mL); wherein the components of the medium includes: Neurobasal Medium® (Gibco™; ThermoFisher Scientific, USA) adding 2% of B-27® Additive (Gibco™; ThermoFisher), 0.5 mM of glutamine (Gibco™; ThermoFisher), 25 μM of glutamate (Sigma-Aldrich, USA), 20 unit/mL of penicillin/streptomycin solution (Gibco™; ThermoFisher Scientific, USA), 1 mM of 4-(2-hydroxyethyl)-1-piperazineethanesulfonic acid) (HEPES) (Sigma-Aldrich), and 1% of heat inactivated Donor Horse Serum (Gibco™; ThermoFisher). Primary hippocampus neurons are cultured in an incubator in an environment of 37° C. and 5% CO2.\nIn some embodiments, experiments should be performed when said cells are in an Alzheimer's disease state. […] Further, 50 μM of oligomeric Aβ25-35 are applied for 1 hour, and then a high dose (70 nM) and low dose (35 nm) of MGCD0103 is applied for 48 hours on day 9. Finally, the cells are collected for immune-fluorescent staining.\nThe collected cells are analyzed with immune-fluorescence staining. First, fixing the cells with 4% of paraformaldehyde (PFA) (Sigma-Aldrich) for 30 minutes; rinsing the cells three times with PBST with a time interval of 10 minutes so as to remove remaining PFA; blocking the cells with 10% fetal bovine serum (FBS) for 2 hours; adding NeuN (1:1000; Milipore, USA) and MAP2 (1:1000; Milipore, USA) primary antibodies and allowing reaction at 4° C. for 16 hours; then allowing reaction with secondary antibodies at 37° C. for 2 hours; finally, staining nucleus with […] (DAPI) (Sigma-Aldrich) and analyzing to obtain values such as numbers of neurons, lengths of synapses, and numbers of branches with a High Content Micro-Imaging Acquisition and Screening System and MetaXpress (purchased from Molecular Devices)."}, "[2]": {"test_system": "mice with oligomeric Aβ25-35 or saline injected into hippocampal CA1", "test": "Morris Water Maze memory test", "assay_type": "in vivo, mice (C57BL/6J)", "procedure": "(§1) Further, in some embodiments of the present invention, C57BL/6J strain male mice (12 week old) are used as a subject in need. After mice are allowed to adapt to the environment for 6 days, mice are anesthetized with Avertin (0.4 g/kg; purchased from Sigma). The mice are fixed on a stereotactic apparatus for operation, followed by injecting oligomeric Aβ25-35 (10 nM, 3 μL) into bilateral hippocampal CA1 (AP: […] relative to the bregma; ML: ±[…] relative to the midline; DV: […] relative to the skull) on day 7. MGCD0103 and equal volume of vehicle (saline) are intraperitoneal (i.p.) injected once a day from day 8, the day after said operation, for 29 days. On day 24, the Open Field Test is performed; on day 26, the EPM is performed; on day 28, the Y-maze is performed; on days 30 to 36, MWM is performed; and on day 37, mice are euthanized for pathological analysis.\nMWM is a test for observing spatial learning and memory of mice by placing a platform in a wide pool. […] The behavior of finding the platform relates to a complex memory process within the brain, including 1) collecting the visual information (such as shape information of rectangles, circles and triangles) with respect to spatial positioning, and 2) processing, sorting, memorizing, fixing and recalling said information. In particular, the mice are placed in a pool filled with milky white non-toxic advertising pigment (used to make the water become opaque to hide the platform so that the mice may not know the position of the platform at the beginning), and are allowed to explore in search of the platform (which is fixed in a predetermined quadrant) underwater. The test is split into several phases as follows: 1) exploration phase: Place the mouse in the water and leave it there for 1 minute. If the mouse cannot find the platform in time, then move the mouse to the platform and leave there for 20 seconds. Then, place the mouse at a dry location and allow to rest until the next experiment; 2) acceptance phase: place the mouse into the water maze at four specific positions in turn in order to test whether the mouse can find the platform or not. Such training is repeated four times a day and continued for 4 days (each mouse is trained a total of 16 times). After 4 days of training, the learning ability of the mouse is measured in testing. After 24 hours of last testing trial, platform was removed and the mouse to freely swim in the pool and observe whether the mouse remembers the position of the platform or not (long-term spatial memory test). The swimming path is recorded by a CCD camera and analyzed with an image tracking system (EthoVision-XT)."}, "[3]": {"test_system": "acetylated tissue proteins H3", "test": "Western blot, acetylated H3", "assay_type": "in vivo, mice (C57BL/6J)", "conditions": "chronic i.p. treatment, hippocampus", "procedure": "as §1"}, "[4]": {"test_system": "pERK", "test": "Western blot, pERK", "assay_type": "in vivo, mice (C57BL/6J)", "conditions": "hippocampus", "procedure": "as §1"}, "[5]": {"test_system": "Tau protein at the Ser-202 site", "test": "Immunohistochemical staining, pS202Tau", "assay_type": "in vivo, mice (C57BL/6J)", "conditions": "Aβ25-35 mice", "procedure": "as §1\n(§2) The inventor collects the brain tissue by perfusion followed by fixing and dehydrating, then, 30 μm frozen sections are obtained by a freezing microtome (CMS3050S, Leica). […] After that, avidin-biotin complex (ABC) is detected 1 hour after staining. […] After all sections have been stained, they are then fixed on a slide, dried, dehydrated, mounted, and photographed for quantity (performed by Image Pro Plus, Meida Cyberetics, USA)."}, "[6]": {"test_system": "Aβ accumulation in hippocampal CA1", "test": "Immunohistochemical staining, Aβ accumulation (6E10)", "assay_type": "in vivo, mice (C57BL/6J)", "conditions": "Aβ25-35 mice", "procedure": "as §1, §2"}, "[7]": {"conditions": "saline-injected (normal) mice, high dose 0.5 mg/kg i.p."}, "[8]": {"conditions": "saline-injected (normal) mice, low dose 0.01 mg/kg i.p."}}}
{"compound": "Nc1ccccc1NC(=O)c1ccc(CNc2nccc(-c3cccnc3)n2)cc1", "note": "[MGCD0103, N-(2-Aminophenyl)-4-[[(4-pyridin-3-ylpyrimidin-2-yl)amino]methyl] benzamide]", "values": [{"measurement": "lengths of neurites", "setting": "[1]; high dose (70 nM)", "result": "significantly improved"}, {"measurement": "numbers of neuron cells (NeuN+)", "setting": "[1]; high dose (70 nM)", "result": "significantly improved"}, {"measurement": "lengths of neurites", "setting": "[1]; low dose (35 nM)", "result": "significantly improved"}, {"measurement": "numbers of neuron cells (NeuN+)", "setting": "[1]; low dose (35 nM)", "result": "significantly improved"}, {"measurement": "learning curve, time required to reach the platform over 4 training days", "setting": "[2]; Aβ25-35 mice, high dose 0.5 mg/kg i.p.", "result": "reduced time required to reach the platform"}, {"measurement": "time required to reach the platform, testing on day 5", "setting": "[2]; Aβ25-35 mice, high dose 0.5 mg/kg i.p., vs Aβ25-35 alone", "result": "significantly less"}, {"measurement": "time spent at the target quadrant after removing the platform (long-term memory)", "setting": "[2]; Aβ25-35 mice, high dose 0.5 mg/kg i.p., vs Aβ25-35 group without treatment", "result": "significantly increased"}, {"measurement": "learning curve, time required to reach the platform over 4 training days", "setting": "[2]; Aβ25-35 mice, low dose 0.01 mg/kg i.p.", "result": "reduced time required to reach the platform"}, {"measurement": "time required to reach the platform, testing on day 5", "setting": "[2]; Aβ25-35 mice, low dose 0.01 mg/kg i.p., vs Aβ25-35 alone", "result": "significantly less"}, {"measurement": "time spent at the target quadrant after removing the platform (long-term memory)", "setting": "[2]; Aβ25-35 mice, low dose 0.01 mg/kg i.p., vs Aβ25-35 group without treatment", "result": "significantly increased"}, {"measurement": "swimming velocity", "setting": "[2]; all groups, low and high dose, saline or Aβ25-35 mice", "result": "same velocity"}, {"measurement": "time required to reach the platform, testing on day 5", "setting": "[2]; saline-injected (normal) mice treated with MGCD0103, dose not stated", "result": "significantly increased"}, {"measurement": "learning curve, time required to reach the platform over 4 training days", "setting": "[2]; [7]", "result": "does not significantly decrease"}, {"measurement": "time spent at the target quadrant after removing the platform (long-term memory)", "setting": "[2]; [7]", "result": "significantly decreased"}, {"measurement": "learning curve, time required to reach the platform over 4 training days", "setting": "[2]; [8]", "result": "does not significantly decrease"}, {"measurement": "time spent at the target quadrant after removing the platform (long-term memory)", "setting": "[2]; [8]", "result": "significantly decreased"}, {"measurement": "acetylation level of tissue proteins H3", "setting": "[3]", "result": "significantly improve"}, {"measurement": "expression of pERK", "setting": "[4]", "result": "do not show difference"}, {"measurement": "pS202Tau", "setting": "[5]; BLA region", "result": "significantly decreased"}, {"measurement": "pS202Tau", "setting": "[5]; hippocampal CA1", "result": "significantly decreased"}, {"measurement": "Aβ accumulation within the hippocampal CA1", "setting": "[6]", "result": "relieved"}]}
